# Columns and labels:
# [1] = tested on: mitochondria from lumbar DRG of STZ-diabetic rats; experiment: Mitochondrial respiratory chain activity in lumbar DRG of STZ-diabetic rats; type: in vivo, rat; conditions: daily s.c. during last eight weeks, 20 weeks
# Text: The rats were then culled and subsequently the lumbar DRG were isolated and rinsed in ice-cold solution containing STE buffer (250 mmol/l sucrose, 10 mmol/l Tris-HCl, 1 mmol/l EDTA, pH 7.4), and then homogenized with a polytron homogenizer ([…] GmbH, Switzerland) using 3×7.5 s grinding pulses at 30 s intervals according to the method taught by Chowdhury et al. (2010).
# Mitochondrial respiratory chain activity in freshly isolated mitochondria from lumbar DRG of age-matched control, diabetic, and pirenzepine-treated diabetic rats was determined using a Clarke-type electrode (Oroboros Oxygraph-2K; Oroboros Instruments, Innsbruck, Austria) following the method taught by Chowdhury et al. (2005, Biochem Biophys Res Commun. 333: 1139-1145), in the presence of specific substrates and inhibitors of the mitochondrial respiratory chain (FIG. 19). Basal respiration in lumbar DRG mitochondria is stated as respiration at state 4 with energetic substrates, pyruvate and malate (P+M). Coupled respiration at state 3 was induced by addition of ADP. Then, the uncoupled rate was determined by adding the uncoupling agent, carbonylcyanide p-trifluoromethoxyphenylhydrazone (FCCP). Ascorbate (Asc) and N,N,N′,N′-tetramethyl-p-phenylenediamine (TMPD) were then added to determine the capacity of cytochrome c oxidase (complex IV). TMPD is an artificial redox mediator that assists transfer of electrons from ascorbate to cytochrome c.
# [2] = tested on: DRG sensory neurons from M1R knockout mice; experiment: Neurite outgrowth in sensory neuron cultures from M1R knockout mice; type: cell-based, mouse; conditions: 1 μM, 24 hr
smiles,measurement,setting,value
"CN1CCN(CC(=O)N2c3ccccc3C(=O)Nc3cccnc32)CC1 [pirenzepine, 11-[2-(4-methylpiperazin-1-yl)acetyl]-5H-pyrido[2,3-b][1,4]benzodiazepin-6-1]",capacity of cytochrome c oxidase (complex IV) (Asc+TMPD),[1],not significantly different from the non-diabetic controls
same,coupled respiration (P+M+ADP),[1],not significantly different from the non-diabetic controls
same,uncoupled respiration (FCCP),[1],not significantly different from the non-diabetic controls
same,basal respiration rates with pyruvate and malate (P+M),[1]; vs control and diabetic rats,similar
same,neurite outgrowth,[2],did not enhance neurite outgrowth

# Reference: US11925649B2, “Treatments for diabetic neuropathy” (University of Manitoba, priority 2010, dated 2024)
